Columns and labels:
[1] = organism: Homo sapiens; experiment: Selectivity ratio of Ki for human recombinant ABL T315I mutant to Ki for human recombinant ABL using ATP as substrate
[2] = organism: Homo sapiens; experiment: Selectivity ratio of Ki for human recombinant ABL T315I mutant to Ki for human recombinant ABL using abtide peptide as substrate

Structure (SMILES)	Ratio Ki [1]	Ratio Ki [2]
Cc1ccc(NC(=O)c2ccc(CN3CCN(C)CC3)cc2)cc1Nc1nccc(-c2cccnc2)n1	20	20
NC(=O)c1cccc(-c2cc(Nc3ccc(OC(F)(F)F)cc3)ncn2)c1	40	40

— ChEMBL document CHEMBL1165915, “Dual Src and Abl inhibitors target wild type Abl and the AblT315I Imatinib-resistant mutant with different mechanisms” (Bioorg Med Chem, 2010)
